Experimental data as given in patent publication US20060069110A1, “Substituted heterocyclic compounds and methods of use” (priority 2004, published 2006).
pIC50: −log10 of the molar value.

System: THP1 cells (LPS induced TNF release)
Test: Lipopolysaccharide-Activated THP1 Cell TNF Production Assay
Format: cell-based
Conditions: Homo sapiens, THP-1, 3 h, read-out: IC50 values in the THP1 cell assay (LPS induced TNF release)
In short: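 THP1 cells at 1E6/mL were treated with 3-fold serial compound dilutions and LPS (1 μg/mL stock) for 3 h at 37 °C. Secreted TNF-α was quantified by electrochemiluminescent sandwich immunoassay. Percent of DMSO control versus concentration was fitted to a 4-parameter equation.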

| SMILES | pIC50 |
| --- | --- |
| Cc1nccn1-c1cccc(C[C@H](C)Nc2nccc(N(C)c3ccnc(-c4ccccc4)n3)n2)c1 [Example 117, N^4-Methyl-N^2-((S)-1-(3-(2-methyl-1H-imidazol-1-yl)phenyl)propan-2-yl)-N^4-(2-phenylpyrimidin-4-yl)pyrimidine-2,4-diamine] | ≥ 4.70 |

Same assay, conditions: Homo sapiens, THP-1; THP1 cells, bacterial LPS, secreted TNF-α after 3 h at 37° C.; read-out: IC50 values in the THP1 cell assay (LPS induced TNF release)

| SMILES | pIC50 |
| --- | --- |
| CN(c1ccnc(N[C@H]2CC[C@H](N)CC2)n1)c1ccnc(-c2ccccc2F)n1 [Example 93, N^2-(4-Aminocyclohexyl)-N^4-(2-(2-fluorophenyl)pyrimidin-4-yl)-N^4-methyl-pyrimidine-2,4-diamine] | ≥ 4.70 |
| CC(Cc1cccc(CN)c1)Nc1nccc(N(C)c2c[nH]c(=O)c(-c3ccccc3)c2)n1 (centres unmarked) [Example 171, 5-((2-(1-(3-(Aminomethyl)phenyl)propan-2-ylamino)pyrimidin-4-yl)(methyl)-amino)-3-phenylpyridin-2(1H)-one] | ≥ 4.70 |
| C[C@@H](Cc1cccc(CNC(=O)OC(C)(C)C)c1)Nc1nccc(N(C)c2cc(-c3ccccc3)c(=O)n(C)c2)n1 [(S)-tert-Butyl-3-(2-(4-(methyl(1-methyl-6-oxo-5-phenyl-1,6-dihydro-pyridin-3-yl)amino)pyrimidin-2-ylamino)propyl)benzylcarbamate] | ≥ 4.70 |
| C[C@@H](Cc1cccc([C@@H](C)N)c1)Nc1nccc(N(C)c2c[nH]c(=O)c(-c3ccccc3)c2)n1 [5-((2-((S)-1-(3-((R)-1-Aminoethyl)phenyl)propan-2-ylamino)pyrimidin-4-yl)-(methyl)amino)-3-phenylpyridin-2(1H)-one] | ≥ 4.70 |
| C[C@@H](Cc1cccc(CN)c1)Nc1nccc(N(C)c2ccnc(-c3ccc(F)cc3F)n2)n1 [Example 91, N^2-((S)-1-(3-(Aminomethyl)phenyl)propan-2-yl)-N^4-(2-(2,4-difluorophenyl)-pyrimidin-4-yl)-N^4-methylpyrimidine-2,4-diamine] | ≥ 4.70 |
| Cc1cc(N(C)c2ccnc(-c3ccccc3)n2)nc(N[C@@H](C)Cc2cccc(CNC(=O)[C@H](C)N)c2)n1 [Example 35, (S)-N-((S)-3-((S)-2-(4-Methyl-6-(methyl(2-phenylpyrimidin-4-yl)amino)pyrimidin-2-ylamino)propyl)benzyl)-2-aminopropanamide] | ≥ 4.70 |
| CN(c1ccnc(NC2CCN(C(=O)CN)CC2)n1)c1ccnc(-c2ccccc2)n1 [Example 43, 2-Amino-1-(4-(4-(methyl(2-phenylpyrimidin-4-yl)amino)pyrimidin-2-ylamino)-piperidin-1-yl)ethanone] | ≥ 4.70 |
| C[C@H](N)c1cccc(C[C@H](C)Nc2nccc(N(C)c3c[nH]c(=O)c(-c4ccccc4)c3)n2)c1 [Example 170, 5-((2-((S)-1-(3-((S)-1-Aminoethyl)phenyl)propan-2-ylamino)pyrimidin-4-yl)-(methyl)amino)-3-phenylpyridin-2(1H)-one] | ≥ 4.70 |
| CN(c1cncc(-c2ccccc2)n1)c1ccnc(N[C@H]2CC[C@H](N)CC2)n1 [Example 124, N^2-((1r, 4r)-4-Aminocyclohexyl)-N^4-methyl-N^4-(6-phenylpyrazine-2-yl)pyrimidine-2,4-diamine] | ≥ 4.70 |
| CC(C)n1cc(N(C)c2ccnc(N[C@@H](C)Cc3cccc(CN)c3)n2)cc(-c2ccccc2)c1=O [5-((2-(((1S)-2-(3-(aminomethyl)phenyl)-1-methylethyl)amino)-4-pyrimidinyl)(methyl)amino)-1-(1-methylethyl)-3-phenyl-2(1H)-pyridinone] | ≥ 4.70 |
| C[C@@H](Cc1cccc(CN)c1)Nc1nccc(N(C)c2c[nH]c(=O)c(-c3ccccc3F)c2)n1 [Example 169] | ≥ 4.70 |
| C[C@H](N)C1CCCC(CCNc2nccc(N(C)c3ccnc(-c4ccccc4)n3)n2)C1 (stereo partly drawn) [Example 12, N^2-(2-(3-((S)-1-Aminoethyl)cyclohexyl)ethyl)-N^4-methyl-N^4-(2-phenylpyrimidin-4-yl)pyrimidine-2,4-diamine] | ≥ 4.70 |
| CN(c1ccnc(N[C@H]2CC[C@H](N)CC2)n1)c1nc(-c2ccccc2)ncc1F [Example 67, N^2-(4-Aminocyclohexyl)-N^4-(5-fluoro-2-phenylpyrimidin-4-yl)-N^4-methyl-pyrimidine-2,4-diamine] | ≥ 4.70 |
| CC(Cc1cccc(CO)c1)Nc1nccc(N(C)c2cccc(-c3cccc(F)c3)n2)n1 (centres unmarked) [Example 156, (3-(2-(4-((6-(3-Fluorophenyl)pyridin-2-yl)(methyl)amino)pyrimidin-2-ylamino)propyl)phenyl)methanol] | ≥ 4.70 |
| CN(c1cc(-c2ccccc2)c(=O)n(C)c1)c1ccnc(NC2CCN(C(=O)OC(C)(C)C)CC2)n1 [Example 173, tert-Butyl 4-(4-(Methyl(1-methyl-6-oxo-5-phenyl-1,6-dihydropyridin-3-yl)amino)pyrimidin-2-ylamino)piperidine-1-carboxylate] | ≥ 4.70 |
| CC(Cc1cccc(CN)c1)Nc1nccc(N(C)c2cc(Cl)nc(-c3ccccc3)c2)n1 (centres unmarked) [Example 164, N^2-(1-(3-(Aminomethyl)phenyl)propan-2-yl)-N^4-(2-chloro-6-phenylpyridin-4-yl)-N4-methylpyrimidine-2,4-diamine] | ≥ 4.70 |

Second part, the molecule after the results:

| pIC50 | SMILES |
| --- | --- |
| ≥ 4.70 | CC(C)NCC[C@@H](Cc1ccccc1)Nc1nccc(N(C)c2ccnc(-c3ccccc3)n2)n1 [Example 58, (R)-N^2-(4-(Isopropylamino)-1-phenylbutan-2-yl)-N^4-methyl-N^4-(2-phenylpyrimidin-4-yl)pyrimidine-2,4-diamine] |
| ≥ 4.70 | C[C@H](Nc1nccc(N(C)c2ccnc(-c3ccccc3)n2)n1)c1cccc(CCC(=O)O)c1 [Example 18, (S)-3-(3-(1-(4-(Methyl(2-phenylpyrimidin-4-yl)amino)pyrimidin-2-ylamino)-ethyl)phenyl)propanoic acid] |
| ≥ 4.70 | COc1ccc(-c2cccc(N(C)c3ccnc(NCCc4ccccc4)n3)n2)cc1 [Example 140, N^4-(6-(4-Methoxyphenyl)pyridin-2-yl)-N^4-methyl-N^2-phenethylpyrimidine-2,4-diamine] |
| ≥ 4.70 | CN(c1ccnc(N[C@@H](CN)Cc2ccccc2)n1)c1ccnc(-c2ccccc2)n1 [Example 48, (R)-N^2-(1-Amino-3-phenylpropan-2-yl)-N^4-methyl-N^4-(2-phenylpyrimidin-4-yl)pyrimidine-2,4-diamine] |
| ≥ 4.70 | CN(c1cccc(-c2ccc(F)c(F)c2)n1)c1ccnc(NCCc2ccccc2)n1 [Example 144, N^4-(6-(3,4-Difluorophenyl)pyridin-2-yl)-N^4-methyl-N^2-phenethylpyrimidine-2,4-diamine] |
| ≥ 4.70 | C[C@H](NC(=O)OC(C)(C)C)c1cccc(CCNc2nccc(N(C)c3ccnc(-c4ccccc4)n3)n2)c1 [Example 20, (S)-tert-Butyl 1-(3-(2-(4-(methyl(2-phenylpyrimidin-4-yl)amino)pyrimidin-2-yl-amino)ethyl)phenyl)ethylcarbamate] |
| ≥ 4.70 | CN(c1cccc(-c2cc(F)cc(F)c2)n1)c1ccnc(NCCc2ccccc2)n1 [Example 143, N^4-(6-(3,5-Difluorophenyl)pyridin-2-yl)-N^4-methyl-N^2-phenethylpyrimidine-2,4-diamine] |
| ≥ 4.70 | CN(c1ccnc(-c2ccccc2)n1)c1nc(NCCc2cccnc2)ncc1F [Example 70, 5-Fluoro-N^4-methyl-N^4-(2-phenylpyrimidin-4-yl)-N^2-(2-(pyridin-3-yl)ethyl)-pyrimidine-2,4-diamine] |
| ≥ 4.70 | CN(c1ccnc(NCCc2cccc(-c3ccccn3)c2)n1)c1ccnc(-c2ccccc2)n1 [Example 118, N^2-(3-(Pyridin-2-yl)phenethyl)-N^4-methyl-N^4-(2-phenylpyrimidin-4-yl)pyrimidine-2,4-diamine] |
| ≥ 4.70 | Cc1cccc(-c2cccc(N(C)c3ccnc(NCCc4ccccc4)n3)n2)c1 [Example 138, N^4-Methyl-N^2-phenethyl-N^4-(6-m-tolylpyridin-2-yl)-pyrimidine-2,4-diamine] |
| ≥ 4.70 | C[C@H](NC(=O)OC(C)(C)C)c1ccc(CCNc2nccc(N(C)c3ccnc(-c4ccccc4)n3)n2)cc1 [Example 4, (S)-tert-Butyl 1-(4-(2-(4-(methyl(2-phenylpyrimidin-4-yl)amino)pyrimidin-2-ylamino)ethyl)phenyl)ethyl carbamate] |
| ≥ 4.70 | C[C@H](Nc1nccc(N(C)c2ccnc(-c3ccccc3)n2)n1)c1cccc(CCN)c1 [Example 19, (S)-N^2-(1-(3-(2-Aminoethyl)phenyl)ethyl)-N^4-methyl-N^4-(2-phenylpyrimidin-4-yl)pyrimidine-2,4-diamine] |
| ≥ 4.70 | CN(c1ccnc(N[C@@H](CNC(=O)CN)Cc2ccccc2)n1)c1ccnc(-c2ccccc2)n1 [Example 52, (R)-2-Amino-N-(2-(4-(methyl(2-phenylpyrimidin-4-yl)amino)pyrimidin-2-ylamino)-3-phenylpropyl)acetamide] |
| ≥ 4.70 | CN(c1ccnc(NCCc2ccccc2Cl)n1)c1nccc(-c2ccccc2)n1 [Example 185, N^2-(2-Chlorophenethyl)-N^4-methyl-N^4-(4-phenylpyrimidin-2-yl)pyrimidine-2,4-diamine] |
| ≥ 4.70 | CN(c1cccc(-c2cccc(C(F)(F)F)c2)n1)c1ccnc(NCCc2ccccc2)n1 [Example 129, N^4-Methyl-N^2-phenethyl-N^4-(6-(3-(trifluoromethyl)phenyl)pyridin-2-yl)-pyrimidine-2,4-diamine] |
| ≥ 4.70 | CN(c1ccnc(NCCc2cccnc2)n1)c1ccnc(-c2ccccc2)n1 [Example 15, N^4-Methyl-N^4-(2-phenylpyrimidin-4-yl)-N^2-(2-(pyridin-3-yl)ethyl)pyrimidine-2,4-diamine] |
| ≥ 4.70 | CN(c1cc(-c2ccccc2)c(=O)n(C)c1)c1ccnc(NCCc2ccccc2)n1 [Example 176, 1-Methyl-5-(methyl(2-(phenethylamino)pyrimidin-4-yl)amino)-3-phenylpyridin-2(1H)-one] |
| ≥ 4.70 | CN(c1ccnc(NCC(c2cccnc2)N(C)C)n1)c1ccnc(-c2ccccc2)n1 (centres unmarked) [Example 109, N^2-(2-(Dimethylamino)-2-(pyridin-3-yl)ethyl)-N^4-methyl-N^4-(2-phenylpyrimidin-4-yl)pyrimidine-2,4-diamine] |
